This is an account of results in patent US7687079B2, “Methods of treating ileus” (priority 2002, dated 2010).

The subject of assay [1] is IL-6, IL-1β, TNFα, ICAM-1, COX-2, iNOS, IL-10 mRNA. Put plainly: real time RT-PCR of inflammatory mediators, CO alone without surgery. The format is in vivo, rat. The settings on record: inhalation of CO alone (no surgery). The protocol:
The effects of inhalation of CO on transplant-induced pro-inflammatory and anti-inflammatory gene expression was assessed in muscularis extracts by RT-PCR. Muscularis extemae was collected from normal intestine and transplanted grafts 4 hours postoperatively and snap frozen in liquid nitrogen. This time point falls within the range of maximum inflammatory mediator expression that occurs between 3 and 6 hours following abdominal incision. Total RNA extraction was performed using the guanidium-thiocyanate phenol-chloroform extraction method as described previously (Eskandari et al., Am. J. Clin. Pathol. 75(3):367-370 (1997)). RNA pellets were resuspended in RNA-secure resuspension solution (Ambion Inc., Austin, Tex.), followed by removal of potentially contaminating DNA by treatment with DNase I (DNA-Free Kit, Ambion Inc., Austin, Tex.). Equal aliquots (5 μg) of total RNA from each sample were quantified by spectrophotometry (wavelength […]) and aliquoted at a concentration of 40 ng/μl. Peak mRNA expression was quantified in duplicate by SYBR Green two-step, real-time RT-PCR. […] Real-time PCR data were plotted as the ΔRn, fluorescence signal versus the cycle number. […] Quantification of mRNA expression was normalized to GAPDH and calculated relative to control using the comparative CT method (Schmittgen et al., J. Biochem. Biophys. Methods 46(1-2):69-8 (2000)). […]
On the technique in general: In qPCR the cycle at which signal appears reflects the starting amount.

The subject of assay [2] is small intestinal circular muscle. Put plainly: in vitro circular muscle contractility (spontaneous and bethanechol-stimulated) after IM. The format is in vivo, mouse. The source says:
Surgical Manipulation. Mice were anesthetized with inhaled isoflurane and the abdomen opened by midline laparotomy. The small intestine was eventrated and gently compressed along its entire length using moistened sterile cotton applicators. This procedure is designed to simulate “running” of the bowel commonly performed during abdominal surgery in the clinical setting. The bowel was repositioned in the abdominal cavity and the incision closed by two layers of continuous sutures. The duration of the procedure was approximately 15 minutes and the animals moved freely about their cage within 20 minutes of withdrawal of anesthetic.
CO Inhalation Treatment. Mice housed in cages were placed in plexiglass chambers that were continuously ventilated with air or with air containing CO (250 ppm). A sampling port was provided to continuously monitor carbon monoxide concentrations within the chamber. Animals had free access to food and water at all times. Mice were exposed to CO or air 1 hour prior to laparotomy, removed for surgical manipulation, and then returned to the chamber for 24 hours. Mice not undergoing surgery were removed from the chamber for a similar length of time and then returned to the chamber for 24 hours.
Mice were anesthetized and killed by exsanguination at the end of the 24-hour chamber treatment with CO or room air. In vitro circular muscle mechanical activity was measured as previously described in Eskandari et al. (Am. J. Physiol. 273:G727-G734 (1997)). Briefly, a segment of mid small bowel was pinned in a Sylgard™ (Midland, Mich.) lined dissecting dish containing pre-oxygenated Krebs-Ringer-bicarbonate buffer (KRB; in mM: 137.4 Na^+, 5.9 K^+, 2.5 Ca^2+, 1.2 Mg^2+, 134 Cl^−, 15.5 HCO3^−, 1.2 H2PO4−, and 11.5 glucose), gassed with 97% O2/3% CO2 to establish a pH of 7.4. The intestine was opened along the mesenteric border, and the mucosa removed by stripping with fine forceps. Full-thickness strips of muscularis (1×6 mm) cut parallel to the circular muscle layer were mounted in standard horizontal mechanical organ chambers and were continuously superfused with preoxygenated KRB maintained at 37° C. One end of each strip was attached by ligature to a fixed post and the other to an isometric force transducer (WPI, Sarasota, Fla.). Strips were allowed to equilibrate for 1 hour, after which they were incrementally stretched to Lo (length at which maximal spontaneous contraction occurs). After a baseline recording period of 30 min, contractility-response curves were generated by exposing the tissues to increasing concentrations of the muscarinic agonist bethanechol (0.3 to 300 μM) for 10 minutes, followed by intervening 10-minute wash periods. Contractile activity was calculated by integrating the area under the trace. The response was normalized to the amount of tissue by converting the weight (1.03 mg/mm^2) and length of the strip to square millimeters of tissue, and reported as g/s/mm^2. Intestinal transit was measured in controls and manipulated animals 24 hours postoperatively by evaluating the intestinal distribution of a non-absorbable fluorescein-labeled dextran (MW 70,000). Animals were lightly sedated with isofluran and fed orally with labeled dextran (100 μl of 25 mg/ml stock solution). Ninety minutes after administration, the animal was sacrificed and the entire bowel from stomach to distal colon was collected. The contents of the stomach, small bowel (divided into 10 segments of equal length), the cecum, and colon (3 segments of equal length) were each minced in 1 ml of saline and mixed vigorously to release the dextran present in each segment. After pelleting the intestinal tissue and chyme, aliquots of the cleared supernatant were read in duplicate on a plate reader (CytoFluor II; excitation wavelength 530 nm and emission 590 nm) for quantification of the fluorescent signal in each bowel segment. […]

Entries after “also recorded” stand apart in the source; their conditions may differ.

With `[C-]#[O+]` [CO, carbon monoxide], the “expression of any of the mediators studied” value in assay [1] is “no effect”. Moreover, the values for the bethanechol-induced contractile activity entry in assay [2] (IM + CO) and in assay [2] (control animals + CO) were “restored contractile activity to control levels” and “no effect”, respectively. Moreover, the peak contractile force was found to be 3.6±0.7 g/s/mm^2 in assay [2] (IM + CO 250 ppm, 100 μM bethanechol) and 3.2±0.5 g/s/mm^2 in assay [2] (control mice, CO alone, bethanechol). Besides, in assay [2] (IM mice treated with CO), the “spontaneous contractile activity (rythmicity)” value is listed as “significantly improved; also recorded: restored”. The spontaneous contractility entry in assay [2] (control mice + CO 24 hr) is “no effect”.
